Source: PubChem BioAssay (NCI)
Values joined by “and” are separate entries in the source; they are usually repeats but may differ in a detail not shown here. Equal values may be shown once.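 Exposure lasted 48 hours, with cells grown in 96-well plates and compounds tested at five concentrations. At the GI50, growth is halved. Definition used: TGI = concentration required for complete inhibition of growth.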

Key:
Experiment in all cases: NCI-60 cell line screen, 48 h
[1] = test system: MDA-MB-435
[2] = test system: OVCAR-8 ovarian
[3] = test system: OVCAR-3 ovarian
[4] = test system: 786-0 renal
[5] = test system: NCI-H460 lung
[6] = test system: RPMI-8226 leukemia
[7] = test system: MCF7 breast
[8] = test system: SF-268 CNS
[9] = test system: OVCAR-5 ovarian
[10] = test system: KM12 colon

Compound	GI50 [1] [nM]	TGI [1] [µM]	GI50 [2] [nM]	TGI [2]	GI50 [3] [nM]	TGI [3] [µM]	GI50 [4] [µM]	TGI [4]	GI50 [5] [µM]	TGI [5] [µM]	GI50 [6] [µM]	TGI [6] [µM]	GI50 [7] [nM]	TGI [7] [µM]	GI50 [8] [µM]	TGI [8] [µM]	GI50 [9] [µM]	TGI [9] [µM]	TGI [10] [µM]	GI50 [10] [nM]
Nc1nc(N)c2cc(S(=O)(=O)c3cccc(C(F)(F)F)c3)ccc2n1	2120	> 100	4220	> 100 µM	6000	> 100	3.98	> 100 µM	0.575	> 100	5.21	> 100	5700	> 100	4.57	> 100	6.46	> 100		
O=C1CN=C(c2ccccc2)c2ccncc2N1				> 100 µM		> 100		> 100 µM								> 100		> 100	37	
N#CSc1c[nH]c2ccc(/C=C/C(=O)/C=C(O)/C=C/c3ccc4[nH]cc(SC#N)c4c3)cc12	2060	7.03	2460	> 100 µM	515	4.06	0.956	9.53 µM	3.01	11.2	1.56	5.98	871	4.15	2.65	13.1	3.6	14.8	5.47	1660
CN(N=O)C(=O)NC(CCCCNC(=O)OCc1ccccc1)C(=O)OCc1ccccc1 (stereo not drawn)				36.7 µM		98.1		33.6 µM		> 100		95.4						> 100	> 100	
CCOP(=O)(OCC)C(C(=O)OC)C(=O)C(=O)Nc1cccc([N+](=O)[O-])c1 (stereo not drawn)				> 100 µM		> 100		> 100 µM		> 100						> 100		> 100	> 100	
O=c1oc2ccccc2cc1P(=O)(O)O		> 100		> 100 µM		> 100		> 100 µM		> 100		> 100		> 100		> 100		> 100		
CC(C)(Sc1cc(C(C)(C)C)c(O)c(C(C)(C)C)c1)Sc1cc(C(C)(C)C)c(O)c(C(C)(C)C)c1		> 100		> 100 µM				> 100 µM		> 100		> 100		> 100		> 100		> 100	> 100	
c1ccc2[nH]c(-c3ccc(Nc4nc(N5CCCC5)nc5[nH]ncc45)cc3)nc2c1	1480	3.08	241	0.621 µM	753	2.81	0.17	0.347 µM	0.412	1.77	0.221	0.528	213	0.619	0.62	2.42	1.23	2.87		
COc1ccc(C(O)C(c2ccc(OCc3ccccc3)cc2)c2ccc(OCc3ccccc3)cc2)cc1 (stereo not drawn)				> 100 µM		> 100		> 100 µM		> 100		> 100				> 100		> 100	> 100	
COC1C(OC(=O)/C=C/C=C/C=C/C=C/C(=O)O)CCC2(CO2)C1C1(C)OC1CC=C(C)C (stereo not drawn)	105		301	> 92 µM	314	> 80.9	0.31	> 100 µM			0.165	78.6	172	> 100	0.388	> 100		> 100	29.4	471
O=S(=O)(c1ccccc1)N1CCC1c1ccccc1 (stereo not drawn)				> 100 µM		> 100		> 100 µM		> 100		> 100				> 100			> 100	
Cc1cc(C)c2c(c1)CSCc1cc(C)cc(C)c1-2				> 100 µM		> 100		> 100 µM		56		56.4				> 100		> 100	> 100	
OC(c1ccccc1)c1c(-c2ccccc2)[nH]c(-c2ccccc2)c1C(O)c1ccccc1 (stereo not drawn)		7.73				8.33		16.1 µM		14.2		5.02		19.1		23		10.8	6.09	
O=[N+]([O-])c1ccc(Cl)c(C2CC(c3cccc4ccccc34)=Nc3ccccc3S2=O)c1 (stereo not drawn)				20.8 µM		83.4		28.5 µM		> 76.4		7.7				> 100		76.1	> 100	
CCOc1ccc2c(c1)[n+]([O-])c(C(N)=O)c(N)[n+]2[O-]				> 100 µM		> 100		> 100 µM		> 100						> 100		> 100	> 100	
COc1cccc2c1C(=O)c1c(O)c3c(c(O)c1C2=O)C[C@@](O)(/C(C)=N/NC(=O)c1cccc([N+](=O)[O-])c1)C[C@@H]3OC1CC(N)C(O)C(C)O1 (stereo partly drawn)			366	21 µM	396	5.26	0.306	5.68 µM	0.0548	12.9	0.2	1.86	61.3	18.5	0.269	2.26	0.919	13.5	10.9	404
O=C(O)c1ccccc1NS(=O)(=O)c1ccc(Cl)cc1				> 100 µM				> 100 µM		> 100		> 100				> 100		> 100		
CC1COS(=O)N1c1ccccc1 (stereo not drawn)				> 100 µM				> 100 µM		> 100		> 100				> 100		> 100	> 100	
NCCNCCNCc1c2ccccc2c(CNCCNCCN)c2ccccc12				> 100 µM		> 100		> 100 µM		> 100		> 100				> 100		> 100	> 100	
CCN(CC)CCN1C(=O)C2C3C(C)=CC(OC(C)=O)(CC3C)C2C1=O (stereo not drawn)	> 100000	> 100	> 100000	> 100 µM			> 100	> 100 µM							> 100	> 100	> 100	> 100	> 100	> 100000

Compound	GI50 [1] [nM]	TGI [1] [µM]	GI50 [2] [nM]	TGI [2]	GI50 [3] [nM]	TGI [3] [µM]	GI50 [4] [µM]	TGI [4]	GI50 [5] [µM]	TGI [5] [µM]	GI50 [6] [µM]	TGI [6] [µM]	GI50 [7] [nM]	TGI [7] [µM]	GI50 [8] [µM]	TGI [8] [µM]	GI50 [9] [µM]	TGI [9] [µM]	TGI [10] [µM]	GI50 [10] [nM]
O=C(c1ccccc1)[C@H]1Nc2ccc(Cl)cc2[C@H]2c3ccccc3O[C@H]21				34.6 µM		25.7		30.6 µM		34.3		> 100				33.9		29.5	30.2	
Cc1cc[c]([Sb]2[O]C(CO)C(C(O)C(O)C(=O)O)[O]2)cc1 (stereo not drawn)	81700	> 100	> 100000	> 100 µM	> 100000	> 100	38.4	> 100 µM							> 100	> 100	29.2	75.2	> 100	46700
[O-]c1ccccc1C=NCCN=Cc1ccccc1[O-].[O]=[U+2]=[O]			31200	> 94.6 µM	24500	95.3	18.6	39.2 µM	19.6	43.7	22.4	> 31.6			25.1	66.5	> 100	> 100	> 100	57100
CS(=O)(=O)N(CCC#N)c1ccc(/C=C2\N=C(c3ccccc3Cl)OC2=O)cc1				> 100 µM		> 100		> 100 µM		> 100		> 100				> 100		> 100	> 100	
O=c1[nH]c(=O)n(Cc2ccc(C34CC5CC(CC(C5)C3)C4)c(O)c2)cc1F	3670	15.4			3740	17.8	13.8	28.5 µM	16.5	43	5.74	23.8	11900	30.9	18.5	65.6	16.1	33.4	28.5	12100
CC[O-].CC[O-].[O-]c1ccccc1C=NC12CC3CC(CC(C3)C1)C2.[O-]c1ccccc1C=NC12CC3CC(CC(C3)C1)C2.[Ti+4]			> 100000	> 100 µM	> 100000	> 100	> 100	> 100 µM	> 100	> 100	57.6	> 100			92.5	> 100	> 100	> 100	> 100	> 100000
Cc1cccc(-c2nc(=S)[nH][nH]2)c1				> 100 µM		> 100		> 100 µM		> 100		> 100				> 100		> 100	> 100	
O=C1c2ccccc2C(=O)N1C/C=N/NS(=O)(=O)c1cccc([N+](=O)[O-])c1				> 100 µM				> 100 µM		> 100		> 100				> 100			> 100	
O=C1/C(=C/c2cc(O)c(O)c(O)c2)Oc2cc(O)cc(OC3OC(CO)C(O)C(O)C3O)c21 (stereo not drawn)				35.7 µM		31.4		> 100 µM		34		67.9							> 100	
CC1=NC2(C(=O)O)C3(C(=O)O)N=C(C)OC3(C(F)(F)F)C2(C(F)(F)F)O1 (stereo not drawn)				> 100 µM		> 100		> 100 µM		> 100						> 100		> 100	> 100	
[N-]=[N+]=NC1C(Cl)C(=O)NC(=O)N1[C@H]1C[C@H](O)[C@@H](CO)O1 (stereo partly drawn)				> 100 µM		> 100		> 100 µM		> 100	71.9	> 100			94	> 100		> 100	> 100	
CC(C)N1CCOC(c2ccc(O)c(O)c2)C1 (stereo not drawn)				> 100 µM		> 100		> 100 µM		> 100		> 100				> 100		> 100	> 100	
COc1ccc(-c2cc(=O)c3c(C)ccnc3[nH]2)cc1				> 100 µM	13900	92	25.3	> 100 µM	6.19	> 100		53		> 100		44.3		68.4	23.2	
O=c1cc(-c2cccc(Cl)c2)[nH]c2cc3c(cc12)OCO3		0.193	760	35 µM and 18.1 µM			0.544	23.4 µM and 23.8 µM		> 100		> 100		> 100				> 100	28.1	
CSC(=Nc1ccc([N+](=O)[O-])cc1C#N)NC(=O)c1ccccc1				> 100 µM		> 100		> 100 µM		> 100		> 100				> 100		> 100	> 100	
O=C1C2C3SC(c4cc5ccccc5cc43)C2C(=O)N1c1ccccc1 (stereo not drawn)				> 100 µM		> 100		> 100 µM				> 100				> 100		> 100	> 100	
Cc1ccc(/C=C/C(=O)c2ccc(F)cc2)s1	1770	3.7	2740	8.72 µM	1800	3.29	3.41	14.1 µM	3.24	10.6			3660	16.9	2.19	4.91	5.39	18.6	7.52	2750
O=S1(=O)[C@H](c2ccccc2)c2c(-c3ccccc3)sc(-c3ccccc3)c2[C@@H]1c1ccccc1				> 100 µM		> 100		> 100 µM		> 100		> 100				> 100		> 100	> 100	
CN1CCN(c2cc(F)c(NC3=C(Cl)C(=O)c4ncccc4C3=O)c(F)c2)CC1	1660	3.2	1860	4 µM	539	2	1.84	3.8 µM	2.1	8.49			1070	2.87	1.7	3.44	1.82	3.6	4.3	2010
COc1cc(OC)c(OC)cc1/C=C/c1ccccn1		> 10		> 10 µM		> 10		> 10 µM		> 10				> 10		> 10		> 10	> 10	
